Experimental findings from patent US9765075B2, “Substituted bridged urea analogs as sirtuin modulators” (GLAXOSMITHKLINE LLC, priority 2013, dated 2017) are described below.

The target in this test is T1, SIRT1 (Homo sapiens, UniProt Q96EB6).
T1 sequence (Q96EB6 1-747): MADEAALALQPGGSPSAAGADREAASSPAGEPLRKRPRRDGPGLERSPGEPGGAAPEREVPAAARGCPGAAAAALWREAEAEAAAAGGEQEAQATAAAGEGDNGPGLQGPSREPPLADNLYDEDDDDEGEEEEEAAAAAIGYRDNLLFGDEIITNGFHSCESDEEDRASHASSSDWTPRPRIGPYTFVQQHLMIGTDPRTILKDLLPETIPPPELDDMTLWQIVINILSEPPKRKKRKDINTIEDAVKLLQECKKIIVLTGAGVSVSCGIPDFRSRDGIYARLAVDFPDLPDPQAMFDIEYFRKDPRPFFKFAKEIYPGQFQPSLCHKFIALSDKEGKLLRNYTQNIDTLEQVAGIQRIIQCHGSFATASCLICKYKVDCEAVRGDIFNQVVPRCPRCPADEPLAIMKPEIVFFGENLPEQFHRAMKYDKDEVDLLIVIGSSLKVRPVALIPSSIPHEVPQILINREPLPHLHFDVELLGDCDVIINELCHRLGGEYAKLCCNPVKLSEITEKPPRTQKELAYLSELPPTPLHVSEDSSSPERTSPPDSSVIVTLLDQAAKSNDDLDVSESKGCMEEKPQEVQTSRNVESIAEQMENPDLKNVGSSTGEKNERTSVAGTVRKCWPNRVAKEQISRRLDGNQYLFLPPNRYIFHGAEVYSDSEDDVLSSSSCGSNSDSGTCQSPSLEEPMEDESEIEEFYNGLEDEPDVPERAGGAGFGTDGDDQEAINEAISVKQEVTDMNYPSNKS
The experiment in a line: Trp mass spectrometry assay (SIRT1 activation). The format is biochemical. Conditions: Trp mass spectrometry assay; for Tryp AVG EC1.5 (μM): EC1.5 = concentration giving 150% activation of SIRT1; for Emax: percent maximum fold activation of SIRT1, read-out: Tryp % Fold Act. The method, boiled down: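 Activation is expressed as EC1.5, the concentration raising activity 50% above DMSO control, and as maximum percent of control. Mass-spec readout was OAADPR or deacetylated Trp peptide after a formic-acid-quenched 25-min, 25 °C reaction: 10 nM bacterially expressed His-SIRT1, 0.5 μM acetyl-p53-derived peptide, 120 μM NAD+, pH 7.5 HEPES with […].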

In the case of `O=C(Nc1ccccn1)N1c2nc(-c3cccc(Cl)c3)ccc2N2C[C@@H](O)[C@H]1C2` [Example 675], the “Tryp AVG EC1.5 (μM)” value was “B (EC1.5 1-25 μM)” and the Emax was at least 150%.
Taken in the same sequence, the figures for `Cc1cncc(NC(=O)N2c3nc(-c4cccc(Cl)c4)ccc3N3C[C@@H](O)[C@H]2C3)c1` [Example 676] were “A (EC1.5<1 μM)” and at least 150%.
For `O=C(Nc1cncc(F)c1)N1c2nc(-c3cccc(Cl)c3)ccc2N2C[C@@H](O)[C@H]1C2` [Example 677], the “Tryp AVG EC1.5 (μM)” value is given as “B (EC1.5 1-25 μM)” and the Emax is at least 150%.
`O=C(Nc1cnccn1)N1c2nc(-c3cccc(Cl)c3)ccc2N2C[C@@H](O)[C@H]1C2` [Example 678]: the “Tryp AVG EC1.5 (μM)” value was “C (EC1.5>25 μM)” and the Emax is below 150%.
For `COc1cc(NC(=O)N2c3nc(-c4cccc(Cl)c4)ccc3N3C[C@@H](O)[C@H]2C3)ncn1` [Example 679] the same measures were “B (EC1.5 1-25 μM)” and at least 150%.
For `COc1cc(NC(=O)N2c3nc(-c4cccc(Cl)c4)ccc3N3C[C@@H](O)[C@H]2C3)nc(OC)n1` [Example 680] the same measures were “B (EC1.5 1-25 μM)” and at least 150%.
Taken in the same sequence, the figures for `O=C(Nc1cccnc1)N1c2nc(-c3cccc(Cl)c3)ccc2N2C[C@@H](O)[C@H]1C2` [Example 681] were “B (EC1.5 1-25 μM)” and at least 150%.
As for `O=C(Nc1cccnn1)N1c2nc(-c3cccc(Cl)c3)ccc2N2C[C@@H](O)[C@H]1C2` [Example 682], the “Tryp AVG EC1.5 (μM)” value is recorded as “B (EC1.5 1-25 μM)” and the Emax was at least 150%.
For `O=C(Nc1cccc(-c2cnco2)c1)N1c2nc(-c3cccc(Cl)c3)ccc2N2C[C@@H](O)[C@H]1C2` [Example 683] the same measures were “A (EC1.5<1 μM)” and at least 150%.
Taken in the same sequence, the figures for `O=C(Nc1ccncn1)N1c2nc(-c3cccc(Cl)c3)ccc2N2C[C@@H](O)[C@H]1C2` [Example 684] were “B (EC1.5 1-25 μM)” and at least 150%.
For `O=C(Nc1cc(-c2cnco2)ccn1)N1c2nc(-c3cccc(Cl)c3)ccc2N2C[C@@H](O)[C@H]1C2` [Example 685] the same measures were “B (EC1.5 1-25 μM)” and at least 150%.
For the compound `Cc1nc(NC(=O)N2c3nc(-c4cccc(Cl)c4)ccc3N3C[C@@H](O)[C@H]2C3)sc1C` [Example 688], the “Tryp AVG EC1.5 (μM)” value was “B (EC1.5 1-25 μM)” and the Emax is at least 150%.
In the case of `O=C(NCCCCn1ccnc1)N1c2nc(-c3cccc(C(F)(F)F)c3)ccc2N2CC[C@H]1C2` [Example 689], the “Tryp AVG EC1.5 (μM)” value was “B (EC1.5 1-25 μM)” and the Emax was at least 150%.
Taken in the same sequence, the figures for `Cc1cncc(NC(=O)N2c3nc(-c4cncc(C(F)(F)F)c4)ccc3N3C[C@@H](O)[C@H]2C3)c1` [Example 690] were “B (EC1.5 1-25 μM)” and at least 150%.
Taken in the same sequence, the figures for `O=C(Nc1cncc(F)c1)N1c2nc(-c3cncc(C(F)(F)F)c3)ccc2N2C[C@@H](O)[C@H]1C2` [Example 691] were “B (EC1.5 1-25 μM)” and at least 150%.
Taken in the same sequence, the figures for `O=C1CN2C[C@H]1N(C(=O)Nc1cccc(-c3cnco3)c1)c1nc(-c3cccc(C(F)(F)F)c3)ccc12` [Example 692] were “A (EC1.5<1 μM)” and at least 150%.
`O=C(Nc1cccc(-c2cnco2)n1)N1c2nc(-c3cccc(Cl)c3)ccc2N2C[C@@H](O)[C@H]1C2` [Example 693]: the “Tryp AVG EC1.5 (μM)” value is reported as “A (EC1.5<1 μM)” and the Emax was at least 150%.
Taken in the same sequence, the figures for `O=C(Nc1ccccn1)N1c2nc(-c3cncc(C(F)(F)F)c3)ccc2N2C[C@@H](O)[C@H]1C2` [Example 694] were “A (EC1.5<1 μM)” and at least 150%.
Taken in the same sequence, the figures for `O=C(Nc1cnccn1)N1c2nc(-c3cncc(C(F)(F)F)c3)ccc2N2C[C@@H](O)[C@H]1C2` [Example 695] were “B (EC1.5 1-25 μM)” and at least 150%.
For `COc1cc(NC(=O)N2c3nc(-c4cncc(C(F)(F)F)c4)ccc3N3C[C@@H](O)[C@H]2C3)ncn1` [Example 696] the same measures were “B (EC1.5 1-25 μM)” and at least 150%.
Turning to `Cc1nc(NC(=O)N2c3nc(-c4cncc(C(F)(F)F)c4)ccc3N3C[C@@H](O)[C@H]2C3)sc1C` [Example 697], the “Tryp AVG EC1.5 (μM)” value is given as “B (EC1.5 1-25 μM)” and the Emax is at least 150%.
Taken in the same sequence, the figures for `O=C(Nc1cccc(-c2cnco2)n1)N1c2nc(-c3cccc(C(F)(F)F)c3)ccc2N2C[C@@H](O)[C@H]1C2` [Example 698] were “A (EC1.5<1 μM)” and at least 150%.
Taken in the same sequence, the figures for `Cc1nc(NC(=O)N2c3nc(-c4cccc(C(F)(F)F)c4)ccc3N3C[C@@H](O)[C@H]2C3)sc1C` [Example 699] were “B (EC1.5 1-25 μM)” and at least 150%.
For `O=C(Nc1ccncn1)N1c2nc(-c3cncc(C(F)(F)F)c3)ccc2N2C[C@@H](O)[C@H]1C2` [Example 700] the same measures were “B (EC1.5 1-25 μM)” and at least 150%.
Consider `O=C(Nc1cccnn1)N1c2nc(-c3cncc(C(F)(F)F)c3)ccc2N2C[C@@H](O)[C@H]1C2` [Example 701], for which the “Tryp AVG EC1.5 (μM)” value was “B (EC1.5 1-25 μM)” and the Emax is at least 150%.
For `O=C(Nc1cccc(-c2cnco2)n1)N1c2nc(-c3cncc(C(F)(F)F)c3)ccc2N2C[C@@H](O)[C@H]1C2` [Example 703] the same measures were “A (EC1.5<1 μM)” and at least 150%.
Regarding `COc1cc(NC(=O)N2c3nc(-c4cncc(C(F)(F)F)c4)ccc3N3C[C@@H](O)[C@H]2C3)nc(OC)n1` [Example 704], the “Tryp AVG EC1.5 (μM)” value is recorded as “B (EC1.5 1-25 μM)” and the Emax is at least 150%.
Taken in the same sequence, the figures for `O=C(Nc1cccnc1)N1c2nc(-c3cncc(C(F)(F)F)c3)ccc2N2C[C@@H](O)[C@H]1C2` [Example 705] were “B (EC1.5 1-25 μM)” and at least 150%.
`O=C(NCc1ncc(-c2cccc(NC(=O)N3c4nc(-c5cccc(C(F)(F)F)c5)ccc4N4CC[C@H]3C4)c2)o1)OCc1ccccc1` [Example 706]: the “Tryp AVG EC1.5 (μM)” value is recorded as “A (EC1.5<1 μM)” and the Emax was at least 150%.
Taken in the same sequence, the figures for `O=C(CCCCCNC(=O)c1ccc2c(c1)C(=O)OC21c2ccc(O)cc2Oc2cc(O)ccc21)NCc1ncc(-c2cccc(NC(=O)N3c4nc(-c5cccc(C(F)(F)F)c5)ccc4N4CC[C@H]3C4)c2)o1` [Example 708] were “A (EC1.5<1 μM)” and at least 150%.
For `O=C(Nc1cccc(-c2cnco2)c1)N1c2nc(-c3cncc(C(F)(F)F)c3)ccc2N2C[C@@H](O)[C@H]1C2` [Example 709] the same measures were “A (EC1.5<1 μM)” and at least 150%.
For `CS(=O)(=O)c1cccc(-c2ccc3c(n2)N(C(=O)Nc2cccc(-c4cnco4)c2)[C@H]2CCN3C2)c1` [Example 710] the same measures were “A (EC1.5<1 μM)” and at least 150%.
Turning to `CCC(=O)c1cccc(NC(=O)N2c3nc(-c4cccc(C(F)(F)F)c4)ccc3N3CC[C@H]2C3)c1` [Example 714], the “Tryp AVG EC1.5 (μM)” value is “A (EC1.5<1 μM)” and the Emax is at least 150%.
For `CS(=O)(=O)c1cccc(-c2ccc3c(n2)N(C(=O)Nc2cccc(-c4cnco4)n2)[C@H]2CCN3C2)c1` [Example 715] the same measures were “B (EC1.5 1-25 μM)” and at least 150%.
Taken in the same sequence, the figures for `O=C(Nc1cncc(-c2cnco2)c1)N1c2nc(-c3cncc(F)c3)ccc2N2CC[C@H]1C2` [Example 716] were “B (EC1.5 1-25 μM)” and at least 150%.
For `O=C(Nc1cccc(-c2cnco2)c1)N1c2nc(N3CCC[C@@H](C(F)(F)F)C3)ccc2N2CC[C@H]1C2` [Example 717] the same measures were “A (EC1.5<1 μM)” and at least 150%.
Regarding `O=C(Nc1cccc(-c2cnco2)c1)N1c2nc(N3CCC[C@H](C(F)(F)F)C3)ccc2N2CC[C@H]1C2` [Example 718], the “Tryp AVG EC1.5 (μM)” value is given as “A (EC1.5<1 μM)” and the Emax was at least 150%.
Taken in the same sequence, the figures for `O=C(Nc1nnc(-c2ccccc2)o1)N1c2nc(-c3cccc(C(F)(F)F)c3)ccc2N2CC[C@H]1C2` [Example 719] were “A (EC1.5<1 μM)” and at least 150%.
Take `O=C(Nc1nnc(-c2ccccn2)o1)N1c2nc(-c3cccc(C(F)(F)F)c3)ccc2N2CC[C@H]1C2` [Example 720]: the “Tryp AVG EC1.5 (μM)” value is listed as “A (EC1.5<1 μM)” and the Emax is at least 150%.
Taken in the same sequence, the figures for `O=C(Nc1nnc(-c2cccnc2)o1)N1c2nc(-c3cccc(C(F)(F)F)c3)ccc2N2CC[C@H]1C2` [Example 721] were “A (EC1.5<1 μM)” and at least 150%.
